Measured values taken from patent US10085955B2, “Methods and compositions for treatment of demyelinating diseases” (Pathologica LLC, priority 2013, dated 2018).
Marks after values point to notes of the source that are not given here.

Columns and labels:
[1] = Multi-species allometric scaling, predicted human pharmacokinetic parameters; parameters: species or system humans; conditions: based on Mouse, Dog, Rhesus
Description: Multi-species allometric scaling based on pharmacokinetic parameters disclosed in Tables 2 and 3 was employed to calculate predicted pharmacokinetic parameters in humans according to methods known in the art. See, e.g., Ings R M, “Interspecies scaling and comparisons in drug development and toxicokinetics,” Xenobiotica, 1990 November; 20(11):1201-31 and Khor, S P et al., “Dihydropyrimidine dehydrogenase inactivation and 5-fluorouracil pharmacokinetics: allometric scaling of animal data, pharmacokinetics and toxicodynamics of 5-fluorouracil in humans,” Cancer Chemother Pharmacol (1997) 39(3): 833-38. Expected values are given below in Tables 6 and 7.

[2] = Rhesus macaque single-dose pharmacokinetics; assay type: in vivo, rhesus monkeys; conditions: plasma, mean
Procedure: Two groups of three male rhesus monkeys were fasted overnight before being administered the test article, MGBG, as either a single bolus intravenous dose of 1 mg/kg (Group 1) or as a single oral gavage dose of 10 mg/kg (Group 2). Dose formulation analysis verified administered dose solutions as within 14% of targeted concentrations of 1 and 10 mg/kg for Groups 1 and 2, respectively.
Blood samples were collected into tubes containing lithium heparin from the femoral vein/artery (approximately 1.0 mL) for plasma MGBG concentration measurement from all intravenously dosed animals prior to dosing and at approximately T=0.083 (5 min), 0.25 (15 min), 0.5 (30 min), 1, 2, 4, 8, and 24 hours after dosing. Blood samples for plasma MGBG concentration measurement were collected from all orally dosed animals prior to dosing at approximately T=1, 2, 4, 8, 12, 24, and 36 hours after dosing. Food was also withheld through the first four hours of blood sample collection.
The samples were centrifuged under refrigerated conditions following completion of sample collection at each interval. The resulting plasma was separated and stored frozen at approximately −70° C. until analysis.
PK analysis was performed on the individual plasma concentration-time profiles for MGBG using the WinNonlin non-compartmental approach (linear trapezoidal rule for AUC calculations). Nominal dose values and sampling times were used for calculations. All MGBG plasma concentration measurements reported as BQL (<2.51 ng/mL) were set equal to zero for the purpose of analysis. Following IV and PO administration of MGBG, plasma PK disposition parameters were calculated using the WinNonlin default selection criteria for the selection of the Lambda Z.
Consequently, a model-dependent two-compartmental analysis was used to calculate bioavailability.

CNS-infiltrating cells = assay: Fourth MOG EAE protocol, flow cytometric analysis of CNS-infiltrating cells at onset and peak; assay type: in vivo, C57BL/6 mice
Procedure: A fourth EAE experiment was run similarly to the above, but was designed to examine the effect of MGBG on cell populations during onset and peak disease. In this protocol, there were 3 experimental groups with 20 mice/group and 1 mock-immunized group with 8 mice. Fingolimod was dosed at 1 mpk QD, MGBG at 30 mpk BID, and the pertussis toxin was administered at 165 ng/dose for both injections. Flow cytometric analysis was performed on CNS-infiltrating cells from 16 mice from each of the vehicle-, fingolimod- and MGBG-treated groups, as well as from all mice in the mock-immunized group. Half of the analyzed mice from each group were collected at the time of EAE onset in the vehicle group and half were collected at the time of EAE peak in the vehicle group. Mouse termination was over eight separate days, because individual mouse in the vehicle group reached EAE onset and EAE peak on different days. Eight (8) of the mice in the vehicle group were sacrificed at each time-point. For each of these mice, a matching mouse from each of Groups 2 and 3 was sacrificed on the same day. For each two (2) of these vehicle group mice, a matching mouse from Group 4 was sacrificed. When selecting matching mice from other groups for termination, the mouse with the highest EAE score was chosen. If no mouse in the group had signs of EAE, a mouse was chosen at random.

[3] = Multi-dose rat pharmacokinetic and tolerability study; assay type: in vivo, Sprague Dawley rats; conditions: for AUC0-12 / AUC0-24 / Cmax / Tmax: PO twice daily; for fold increase in mean AUCall compared to Study Day 1: repeat twice-daily PO
Procedure: The purpose of this study was to determine the pharmacokinetic (PK) properties and tolerability of MGBG in rats. Additionally, recovery from any toxic effects was assessed after a seven day non-dosing period.
Three per group of male Sprague Dawley (CD® IGS, Charles River) aged 7-9 weeks and weighing 222.7-252.0 g were administered by oral (PO) gavage, twice daily, at 10, 20, or 30 mg/kg/dose (20, 40, or 60 mg/kg/day) for seven consecutive days. A washout period of seven days followed. Collection of approximately 200 μL of whole blood was collected from the tail vein of all animals in Groups 5, 6, and 7 were bled at six (Day 1), seven (Day 7), or one (Days 9 through 15) time point(s), respectively. Whole blood samples were collected in a lithium heparin microtainer and processed to plasma by centrifugation. Plasma was frozen at −70° C. Pharmacokinetic analyses were performed on the individual animal plasma concentration versus time data for MGBG using WinNonlin (linear trapezoidal rule for AUC calculations). Nominal dose values and sampling times were used for calculations. For Study Day 7, the reported values for MGBG concentrations at time zero were used in the calculations of AUC. Study Day 1 disposition parameters were not reported due to insufficient terminal phase data to adequately characterize these parameters.

[4] = oral gavage 10 mg/kg single dose

`CC(/C=N/NC(=N)N)=N\NC(=N)N` [MGBG, 1,1′ [methylethanediylidene]dinitrilodiguanidine] gave a CL ([1]; IV) of 7.9 mL/min/kg, a VSS ([1]; IV) of 9.1 L/kg and a t1/2 ([1]; IV) of 13.3 h. It also gave a CL ([1]; IV, Rat) of 7.7 mL/min/kg, a VSS ([1]; IV, Rat) of 9.0 L/kg and a t1/2 ([1]; IV, Rat) of 13.4 h. The CL ([1]; ORAL) was 20.9 mL/min/kg, the VSS ([1]; ORAL) was 41.6 L/kg and the t1/2 ([1]; ORAL) was 23.0 h. The CL ([1]; ORAL, Rat) was 21.0 mL/min/kg, the VSS ([1]; ORAL, Rat) was 42.4 L/kg and the t1/2 ([1]; ORAL, Rat) was 23.3 h. It also gave a Clobs ([2]; IV 1 mg/kg single bolus) of 13.7 mL/min/kg, a VSSobs ([2]; IV 1 mg/kg single bolus) of 13.2 L/kg and a Clobs [2, 4] of 6.63 mL/min/kg. The Vd [2, 4] was 13.2 L/kg, the “CD4+ IFNy+” value (CNS-infiltrating cells; Onset) was 3.19 +/− # cells (10^3) and the “CD4+ IFNγ+” value (CNS-infiltrating cells; Onset) was 9.57 % cells. For the same molecule, the “CD4+ IL-17A+ IFNy+” value (CNS-infiltrating cells; Onset) was 1.56 +/− # cells (10^3), the “CD4+ IL-17A+ IFNγ+” value (CNS-infiltrating cells; Onset) was 4.14 % cells and the “CD4+ IFNy+” value (CNS-infiltrating cells; Peak) was 4.57 +/− # cells (10^3). For the same molecule, the “CD4+ IFNγ+” value (CNS-infiltrating cells; Peak) was 9.37 % cells, the “CD4+ IL-17A+ IFNy+” value (CNS-infiltrating cells; Peak) was 3.01 +/− # cells (10^3) and the “CD4+ IL-17A+ IFNγ+” value (CNS-infiltrating cells; Peak) was 5.45 % cells. The “CNS infiltration by proinflammatory cells” value (CNS-infiltrating cells; fourth study, MGBG 30 mpk BID) was “reduced”, the “proportion and number of infiltrating dendritic cells” value (CNS-infiltrating cells; fourth study, MGBG 30 mpk BID vs fingolimod 1 mpk QD) was “reduced in MGBG-treated mice more than in fingolimod-treated mice” and the “CD11c+ of CD4− CD45.2+ high cells In Peak of Disease in Animals Without EAE Disease” value (CNS-infiltrating cells; subset of animals which did not develop disease when vehicle-treated animals were at peak) was 2.93 +/− 0.37. For the same molecule, the “hematology differences versus control group” value ([3]; 60 mg/kg/day dose group, not thought to be adverse) was “lower reticulocyte count and percentage”, the “gross or microscopic lesions at terminal sacrifice” value ([3]; PO twice daily 7 days, 20-60 mg/kg/day) was “No gross or microscopic lesions” and the AUC0-12 ([3]; 20 mg/kg/day, Day 7) was 1030 ng·h/mL. It also gave an AUC0-24 ([3]; 20 mg/kg/day, Day 7) of 2190 ng·h/mL, a Cmax ([3]; 20 mg/kg/day, Day 7) of 117 ng/mL and a Tmax ([3]; 20 mg/kg/day, Day 7) of 14 h. It also gave an AUC0-12 ([3]; 40 mg/kg/day, Day 7) of 1800 ng·h/mL, an AUC0-24 ([3]; 40 mg/kg/day, Day 7) of 3690 ng·h/mL and a Cmax ([3]; 40 mg/kg/day, Day 7) of 194 ng/mL. The Tmax ([3]; 40 mg/kg/day, Day 7) was 9.33 h, the Tmax ([3]; 60 mg/kg/day, Day 1) was 3.33 h and the AUC0-12 ([3]; 60 mg/kg/day, Day 7) was 3130 ng·h/mL. It also gave an AUC0-24 ([3]; 60 mg/kg/day, Day 7) of 6040 ng·h/mL, a Cmax ([3]; 60 mg/kg/day, Day 7) of 337 ng/mL and a Tmax ([3]; 60 mg/kg/day, Day 7) of 7.33 h. For the same molecule, the “fold increase in mean AUCall compared to Study Day 1” value (shortened to “fold increase in mean AUCall”) ([3]; 20 mg/kg/day) was 3.77 fold, the “fold increase in mean AUCall” value ([3]; 40 mg/kg/day) was 4.03 fold and the “fold increase in mean AUCall” value ([3]; 60 mg/kg/day) was 3.68 fold.
